Measurements taken from ChEMBL document CHEMBL3785045, “Design, syntheses, and anti-tuberculosis activities of conjugates of piperazino-1,3-benzothiazin-4-ones (pBTZs) with 2,7-dimethylimidazo [1,2-a]pyridine-3-carboxylic acids and 7-phenylacetyl cephalosporins” (2016).
≈ marks a conversion by molar mass, not a printed value.

Key:
[1] = system: Mycobacterium tuberculosis; assay: Antimycobacterial activity against Mycobacterium tuberculosis H37Rv cultured in 7H12 medium after 4 days by microplate Alamar blue assay; assay type: functional; conditions: 96 h
[2] = system: Mycobacterium tuberculosis; assay: Antimycobacterial activity against Mycobacterium tuberculosis H37Rv cultured in GAS medium after 4 days by microplate Alamar blue assay; assay type: functional; conditions: 96 h
Bacillus subtilis [3] = assay: Antibacterial activity against Bacillus subtilis ATCC 6633; assay type: functional
Micrococcus luteus [4] = assay: Antibacterial activity against Micrococcus luteus ATCC 10240; assay type: functional
Staphylococcus aureus [5] = assay: Antibacterial activity against Staphylococcus aureus SG511; assay type: functional
Micrococcus luteus [6] = assay: Antibacterial activity against Micrococcus luteus ATCC 10240 assessed as zone of growth inhibition by agar diffusion assay; assay type: functional
Staphylococcus aureus [7] = assay: Antibacterial activity against Staphylococcus aureus SG511 assessed as zone of growth inhibition by agar diffusion assay; assay type: functional
Bacillus subtilis [8] = assay: Antibacterial activity against Bacillus subtilis ATCC 6633 assessed as zone of growth inhibition by agar diffusion assay; assay type: functional
Mycolicibacterium vaccae [9] = assay: Antibacterial activity against Mycobacterium vaccae IMET 10670 assessed as zone of growth inhibition by agar diffusion assay; assay type: functional
Mycolicibacterium vaccae [10] = assay: Antibacterial activity against Mycobacterium vaccae IMET 10670; assay type: functional
Staphylococcus aureus [11] = assay: microbe, parasite or virus in culture; conditions: SG511, read-out: IZ
Description: Antibacterial activity against Staphylococcus aureus SG511 assessed as zone of growth inhibition at 1.66 ug/ml by agar diffusion assay

Micrococcus luteus [12] = assay: Antibacterial activity against Micrococcus luteus ATCC 10240 assessed as zone of growth inhibition at 1.66 ug/ml by agar diffusion assay; assay type: functional; conditions: read-out: IZ
Bacillus subtilis [13] = assay: microbe, parasite or virus in culture; conditions: ATCC 6633, read-out: IZ
Description: Antibacterial activity against Bacillus subtilis ATCC 6633 assessed as zone of growth inhibition at 1.66 ug/ml by agar diffusion assay

Mycolicibacterium vaccae [14] = assay: Antibacterial activity against Mycobacterium vaccae IMET 10670 assessed as zone of growth inhibition at 1.66 ug/ml by agar diffusion assay; assay type: functional; conditions: read-out: IZ

SMILES | MIC [1] | MIC [2] | MIC (Bacillus subtilis [3]) | MIC (Staphylococcus aureus [5]) | other results
Cc1ccn2c(C(=O)N3CCN(c4nc(=O)c5cc(C(F)(F)F)cc([N+](=O)[O-])c5s4)CC3)c(C)nc2c1 | 2.1 µM (≈ 1.12 µg/mL) | 1.43 µM (≈ 0.761 µg/mL) |  |  | 
CO[C@H]1/C=C/O[C@@]2(C)Oc3c(C)c(O)c4c(O)c(c(/C=N/N5CCN(C)CC5)c(O)c4c3C2=O)NC(=O)/C(C)=C\C=C\[C@H](C)[C@H](O)[C@@H](C)[C@@H](O)[C@@H](C)[C@H](OC(C)=O)[C@@H]1C [RIFAMPIN] | 0.05 µM (≈ 0.0411 µg/mL) | 0.04 µM (≈ 0.0329 µg/mL) |  |  | 
Cc1ccn2c(C(=O)NCc3ccc(C(=O)N4CCN(c5nc(=O)c6cc(C(F)(F)F)cc([N+](=O)[O-])c6s5)CC4)cc3)c(C)nc2c1 | > 10 µM | > 10 µM |  |  | 
O=C(Cc1ccccc1)N[C@@H]1C(=O)N2C(C(=O)O)=C(CN3CCN(c4cc5c(cc4F)c(=O)c(C(=O)O)cn5C4CC4)CC3)CS[C@H]12 |  |  | < 0.1 µM | 0.2 µM (≈ 0.132 µg/mL) | MIC (Micrococcus luteus [4]): 3.13 µM (≈ 2.07 µg/mL)
Cc1ccn2c(C(=O)NCCC(=O)OCc3ccccc3)c(C)nc2c1 | > 10 µM | > 10 µM |  |  | 
CC(C)(C)OC(=O)N1CCN(c2nc(=O)c3cc(C(F)(F)F)cc([N+](=O)[O-])c3s2)CC1 | 0.28 µM (≈ 0.129 µg/mL) | < 0.2 µM |  |  | 
Cc1ccn2c(C(=O)NCc3ccc(C(=O)OCc4ccccc4)cc3)c(C)nc2c1 | 0.21 µM (≈ 0.0868 µg/mL) | 4.1 µM (≈ 1.7 µg/mL) |  |  | 
CC(C)(C)OC(=O)C1=C(CN2CCN(c3nc(=O)c4cc(C(F)(F)F)cc([N+](=O)[O-])c4s3)CC2)CS[C@@H]2[C@H](NC(=O)Cc3ccccc3)C(=O)N12 | 2.03 µM (≈ 1.52 µg/mL) | 1.51 µM (≈ 1.13 µg/mL) | 1.56 µM (≈ 1.16 µg/mL) | 12.5 µM (≈ 9.33 µg/mL) | inhibition zone (IZ) (Micrococcus luteus [6]): 13 mm; inhibition zone (IZ) (Staphylococcus aureus [7]): 23 mm; inhibition zone (IZ) (Bacillus subtilis [8]): 27 mm; inhibition zone (IZ) (Mycolicibacterium vaccae [9]): 29 mm; MIC (Mycolicibacterium vaccae [10]): 0.8 µM (≈ 0.597 µg/mL)
Cc1ccn2c(C(=O)NCCCC(=O)OCc3ccccc3)c(C)nc2c1 | 5.85 µM (≈ 2.14 µg/mL) | > 10 µM |  |  | 
C[C@H]1COC2(CCN(c3nc(=O)c4cc(C(F)(F)F)cc([N+](=O)[O-])c4s3)CC2)O1 [BTZ-043] | < 0.004 µM | < 0.004 µM |  | > 200 µM | MIC (Mycolicibacterium vaccae [10]): 0.03 µM (≈ 0.0129 µg/mL); MIC (Micrococcus luteus [4]): > 200 µM
CC(C)(C)OC(=O)C1=C(COC(=O)N2CCN(c3nc(=O)c4cc(C(F)(F)F)cc([N+](=O)[O-])c4s3)CC2)CS[C@@H]2[C@H](NC(=O)Cc3ccccc3)C(=O)N12 | 1.49 µM (≈ 1.18 µg/mL) | 63.5 µM (≈ 50.2 µg/mL) |  |  | 
O=C(Cc1ccccc1)N[C@@H]1C(=O)N2C(C(=O)O)=C(COC(=O)N3CCN(c4nc(=O)c5cc(C(F)(F)F)cc([N+](=O)[O-])c5s4)CC3)CS[C@H]12 | 4.63 µM (≈ 3.4 µg/mL) | 12 µM (≈ 8.79 µg/mL) | 0.8 µM (≈ 0.588 µg/mL) | 12.5 µM (≈ 9.18 µg/mL) | inhibition zone (IZ) (Micrococcus luteus [6]): 24 mm; inhibition zone (IZ) (Staphylococcus aureus [7]): 27 mm; inhibition zone (IZ) (Bacillus subtilis [8]): 41 mm; inhibition zone (IZ) (Mycolicibacterium vaccae [9]): 48 mm; MIC (Mycolicibacterium vaccae [10]): 0.2 µM (≈ 0.147 µg/mL)
CC(C)(C)OC(=O)C1=C(COC(=O)OC(Cl)C(Cl)(Cl)Cl)CS[C@@H]2[C@H](NC(=O)Cc3ccccc3)C(=O)N12 (stereo partly specified) | > 50 µM | 22.2 µM (≈ 13.7 µg/mL) |  |  | 
COc1ccc(COC(=O)C2=C(CN3CCN(c4nc(=O)c5cc(C(F)(F)F)cc([N+](=O)[O-])c5s4)CC3)CS[C@@H]3[C@H](NC(=O)Cc4ccccc4)C(=O)N23)cc1 | > 100 µM | > 100 µM | 0.1 µM (≈ 0.0811 µg/mL) | 1.56 µM (≈ 1.26 µg/mL) | inhibition zone (IZ) (Micrococcus luteus [6]): 24 mm; inhibition zone (IZ) (Staphylococcus aureus [7]): 37 mm; inhibition zone (IZ) (Bacillus subtilis [8]): 36 mm; inhibition zone (IZ) (Mycolicibacterium vaccae [9]): 24 mm
Cc1ccn2c(C(=O)NCCC(=O)N3CCN(c4nc(=O)c5cc(C(F)(F)F)cc([N+](=O)[O-])c5s4)CC3)c(C)nc2c1 | > 10 µM | > 10 µM |  |  | 
Cc1ccn2c(C(=O)NCCCC(=O)N3CCN(c4nc(=O)c5cc(C(F)(F)F)cc([N+](=O)[O-])c5s4)CC3)c(C)nc2c1 | > 10 µM | > 10 µM |  |  | 
O=C(O)c1cn(C2CC2)c2cc(N3CCNCC3)c(F)cc2c1=O [CIPROFLOXACIN] |  |  | 0.15 µM (≈ 0.0497 µg/mL) |  | zone of inhibition at 1.66 µg/mL (Staphylococcus aureus [11]): 20 mm; zone of inhibition at 1.66 µg/mL (Micrococcus luteus [12]): 0 mm; zone of inhibition at 1.66 µg/mL (Bacillus subtilis [13]): 20 mm; zone of inhibition at 1.66 µg/mL (Mycolicibacterium vaccae [14]): 17 mm
O=C(Cc1ccccc1)N[C@@H]1C(=O)N2C(C(=O)O)=C(CN3CCN(c4nc(=O)c5cc(C(F)(F)F)cc([N+](=O)[O-])c5s4)CC3)CS[C@H]12 | 86.8 µM (≈ 60 µg/mL) | 48.9 µM (≈ 33.8 µg/mL) | < 0.003 µM | 0.4 µM (≈ 0.276 µg/mL) | inhibition zone (IZ) (Micrococcus luteus [6]): 48 mm; inhibition zone (IZ) (Staphylococcus aureus [7]): 32 mm; inhibition zone (IZ) (Bacillus subtilis [8]): 41 mm; inhibition zone (IZ) (Mycolicibacterium vaccae [9]): 33 mm; MIC (Mycolicibacterium vaccae [10]): 12.5 µM (≈ 8.63 µg/mL); MIC (Micrococcus luteus [4]): 1.56 µM (≈ 1.08 µg/mL)
